Data: US10519132B2, “Isocorydine derivatives, preparation method and use thereof” (Lanzhou Institute of Chemical Physics, Chinese Academy of …, priority 2017, dated 2019)
Where two headings read alike, the source gives them in different places.

How the values were obtained:
[1] = system: human cervical cancer Hela cell strains; assay: MTT growth inhibition on Hela;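 also: compound exposure of 24, 48 or 72 h in DMEM with 10% fetal bovine serum, MTT absorbance read at 490 nm, inhibition calculated relative to control group OD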
Protocol: (§1) By using an MTT method, a sample solution to be tested was added to a 96-well plate in which cancer cells were adherently grown. Culturing was performed for a certain period, and the growth inhibition effect of a compound on a human cancer cell strain for primary screening was measured to determine the anti-cancer activity of the compound.
(§2) Cell culture: A cell incubator was set to conditions of 37° C., 5% CO2, and a saturated humidity, cells were cultured under these conditions, and the cell medium was a DMEM complete medium, wherein 10% fetal bovine serum, 100 IU/mL penicillin, and 100 μg/mL streptomycin were comprised.
(§3) The single cell suspension was diluted to 5×10^3/100 μL after counting, inoculated on a 96-well cell culture plate (triplicate), and adherently cultured overnight;
(§4) After 24 h of adhesion, the complete medium was discarded, 100 μL-sample-solutions to be tested having different concentrations were sequentially added to the 96-well plate according to a concentration gradient, and incubations were continued for 24 h, 48 h, and 72 h;
(§5) The culture liquid was discarded, a 0.5 mg/mL MTT diluted working liquid was added, and incubation was performed for 4 h by placing in an incubator;
(§6) The culture liquid was discarded, 100 μL of DMSO was added, low-speed oscillation was performed for 10 min by placing on a shaker, and the spectrophotometric value of each well was measured at a wavelength of 490 nm by using a microplate reader. Statistical analysis was performed and tumor cell growth inhibition rate was calculated according to the equation: Growth inhibition rate=(OD value of control group−OD value of experimental group)/OD value of control group.
(§7) Culturing was performed for a certain period, the growth inhibition effect of a compound on 3 human cancer cell strains for primary screening was measured to determine the anti-cancer activity of the compound, and a growth inhibition curve was plotted.

[2] = system: human liver cancer cell strain HepG2; assay: MTT growth inhibition on HepG2; assay type: cell-based;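 also: adherent cells in 96-well plates treated with a concentration series for 24, 48 or 72 h, MTT absorbance read at 490 nm, inhibition computed relative to untreated control wells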
Protocol: as §1, §2, §3, §4, §5, §6, §7

[3] = system: human gastric cancer cell strain MGC-803; assay: MTT growth inhibition on MGC-803;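 also: adherent cells exposed to compound over a concentration gradient for 24, 48 and 72 h, MTT absorbance at 490 nm, inhibition relative to untreated control wells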
Protocol: as §1, §2, §3, §4, §5, §6, §7

[4] = Homo sapiens, HeLa, read-out: IC50 HeLa
[5] = Homo sapiens, HepG2, Table 1, MTT, read-out: IC50 HepG2
[6] = Homo sapiens, MGC-803, read-out: IC50 MGC-803
[7] = Homo sapiens, HepG2, read-out: IC50 HepG2
[8] = Homo sapiens, HeLa, read-out: IC50 HeLa, Table 1, MTT
[9] = Homo sapiens, MGC-803, read-out: IC50 MGC-803, Table 1, MTT

| SMILES | IC50 [1, 4] | IC50 [2, 5] | IC50 [3, 6] | IC50 [1, 8] | IC50 [3, 9] | further results |
| --- | --- | --- | --- | --- | --- | --- |
| COc1cc(NC(=O)Nc2ccc(Cl)c(Cl)c2)c2c(c1O)-c1c(OC)c(OC)cc3c1C(C2)N(C)CC3 (stereo not drawn) [Compound 2, 8-(N-(3′,4′-dichloro-phenyl))-ureido-isocorydine] | 21.7 µM | 28.4 µM | 30 µM | – | – | – |
| COc1cc(NC(=O)Nc2ccc(C)cc2)c2c(c1OC(=O)Nc1ccc(C)cc1)-c1c(OC)c(OC)cc3c1C(C2)N(C)CC3 (stereo not drawn) [Compound 3] | 19.1 µM | – | 25.6 µM | – | – | IC50 [2, 7]: 16.1 µM |
| COc1cc(NC(=O)Nc2ccc(SC)cc2)c2c(c1O)-c1c(OC)c(OC)cc3c1C(C2)N(C)CC3 (stereo not drawn) [Compound 4, 8-(N-(4′-methylsulfide-phenyl))-ureido-isocorydine] | – | 53.2 µM | – | 46.6 µM | 47.8 µM | – |
| COc1cc(NC(=O)Nc2ccccc2Cl)c2c(c1O)-c1c(OC)c(OC)cc3c1C(C2)N(C)CC3 (stereo not drawn) [Compound 5, 8-(N-(2′-dichloro-phenyl))ureido-isocorydine] | – | 36.7 µM | – | 36.9 µM | 35.2 µM | – |
| COc1cc(NC(=O)Nc2ccccc2Cl)c2c(c1OC(=O)Nc1ccccc1Cl)-c1c(OC)c(OC)cc3c1C(C2)N(C)CC3 (stereo not drawn) [Compound 6] | 27.1 µM | – | 26.9 µM | – | – | IC50 [2, 7]: 17.2 µM |
| COc1cc(NC(=O)Nc2ccccc2C)c2c(c1OC(=O)Nc1ccccc1C)-c1c(OC)c(OC)cc3c1C(C2)N(C)CC3 (stereo not drawn) [Compound 7] | 43.9 µM | – | 22.8 µM | – | – | IC50 [2, 7]: 31.4 µM |
| COc1cc(NC(=O)Nc2ccc(C(F)(F)F)cc2)c2c(c1O)-c1c(OC)c(OC)cc3c1C(C2)N(C)CC3 (stereo not drawn) [Compound 8, 8-(N-(4′-trifluoromethyl-phenyl))-ureido-isocorydine] | – | 45.9 µM | – | 49 µM | 57.3 µM | – |
| COc1cc(NC(=O)Nc2ccc(C(F)(F)F)cc2)c2c(c1OC(=O)Nc1ccc(C(F)(F)F)cc1)-c1c(OC)c(OC)cc3c1C(C2)N(C)CC3 (stereo not drawn) [Compound 9] | 47.7 µM | – | 39.3 µM | – | – | IC50 [2, 7]: 44.1 µM |
| COc1cc(NC(=O)Nc2ccc(F)cc2)c2c(c1OC(=O)Nc1ccc(F)cc1)-c1c(OC)c(OC)cc3c1C(C2)N(C)CC3 (stereo not drawn) [Compound 10] | 26.8 µM | – | 25.1 µM | – | – | IC50 [2, 7]: 26.7 µM |
| COc1cc(NC(=O)c2ccc(Cl)c(C(F)(F)F)c2)c2c(c1O)-c1c(OC)c(OC)cc3c1C(C2)N(C)CC3 (stereo not drawn) [Compound 11, 8-N-(3′-trifluoromethyl-4′-chloro-benzoyl)-isocorydine] | – | 21.5 µM | – | 16.6 µM | 21.9 µM | – |
| COc1cc(NC(=O)/C=C/c2ccccc2)c2c(c1O)-c1c(OC)c(OC)cc3c1C(C2)N(C)CC3 (stereo not drawn) [Compound 12, 8-N-trans-cinnamoyl-isocorydine] | – | 63.4 µM | – | 74.5 µM | 37.9 µM | – |
| COc1cc(NC(=O)c2cc(Cc3n[nH]c(=O)c4ccccc34)ccc2F)c2c(c1O)-c1c(OC)c(OC)cc3c1C(C2)N(C)CC3 (stereo not drawn) [Compound 13, 8-N-[2-fluoro-5-(4-oxo-3,4-dihydrophthalazin-1-yl)methyl]benzamido isocorydine] | – | 30.2 µM | – | 29.6 µM | 27.2 µM | – |
| COc1cc(NC(=O)c2cccnc2)c2c(c1O)-c1c(OC)c(OC)cc3c1C(C2)N(C)CC3 (stereo not drawn) [Compound 14, 8-N-nicotinamido-isocorydine] | – | 69.8 µM | – | 49.6 µM | 34.7 µM | – |
| COc1cc(NC(=O)Nc2ccccc2)c2c(c1O)-c1c(OC)c(OC)cc3c1C(C2)N(C)CC3 (stereo not drawn) [Compound 15, 8-N-(phenyl)-ureido-isocorydine] | 62.1 µM | 75.4 µM | 56.6 µM | – | – | – |
| COc1cc(NC(=O)Nc2ccc(N3CCC(CNC(=O)OC(C)(C)C)CC3)c(C(F)(F)F)c2)c2c(c1O)-c1c(OC)c(OC)cc3c1C(C2)N(C)CC3 (stereo not drawn) [Compound 16, 8-[3-trifluoromethyl-4-(4-methylaminoformic acid tert-butyl ester)piperidine]benzoylureido isocorydine] | – | 18.9 µM | – | 22.1 µM | 23.2 µM | – |
| CCC(=O)NCC1CCN(c2ccc(NC(=O)Nc3cc(OC)c(O)c4c3CC3c5c(cc(OC)c(OC)c5-4)CCN3C)cc2C(F)(F)F)CC1 (stereo not drawn) [Compound 18, 8-[3-trifluoromethyl-4-(4-methylaminoformic acid propyl ester)-piperidine]benzoylureido isocorydine] | – | 10.7 µM | – | 12.5 µM | 10.4 µM | – |
| COc1cc(NC(=O)Nc2ccc(N3CCC(NC(=O)OC(C)(C)C)CC3)c(C(F)(F)F)c2)c2c(c1O)-c1c(OC)c(OC)cc3c1C(C2)N(C)CC3 (stereo not drawn) [Compound 19, 8-N-[3′-trifluoromethyl-4′-(4″-aminoformic acid tert-butyl ester-piperidine)-phenyl]-ureido isocorydine] | – | 25.9 µM | – | 26.7 µM | 28.7 µM | – |
| COc1cc(NC(=O)Nc2ccc(N3CCC(N)CC3)c(C(F)(F)F)c2)c2c(c1O)-c1c(OC)c(OC)cc3c1C(C2)N(C)CC3 (stereo not drawn) [Compound 20, 8-(N-(3′-trifluoromethyl-4′-(4″-amino-piperidine)-phenyl))-ureido-isocorydine] | – | 18.6 µM | – | 13.7 µM | 22.3 µM | – |
| COC1=CC(=O)c2cc3c4c(cc(OC)c(OC)c4c2C1=O)CCN3C [TICD, isocorydione, reference compound] | – | – | – | – | – | IC50 ([1]; read-out: IC50 Hela, Table 2, MTT): 31.3 µM; IC50 ([2]; Table 2, MTT, read-out: IC50 HepG2): 40 µM; IC50 ([3]; read-out: IC50 MGC-803, Table 2, MTT): 49.6 µM |
